Assay results: patent publication US12384776B2, “Compounds and uses thereof” (Foghorn Therapeutics Inc., priority 2019, dated 2025)

biological target: BRD9 bromodomain (Homo sapiens (Human), UniProt Q9H8M2); assay: BRD9 bromodomain TR-FRET competition binding assay
Method: Procedure: His-Flag-BRD9 (P133-K239; Swiss Prot Q9H8M2; SEQ ID NO:1 mgsshhhhhhenlyfq/gdykddddkgslevlfqg/[…] […]) was cloned, expressed, purified, and then treated with TEV protease. Cleaved His tag was removed by purification. The binding of a biotinylated small molecule ligand of BRD9 was assessed via the LANCE® TR-FRET platform (PerkinElmer), and the compounds were assayed for inhibitory activity against this interaction.
Results: A mixture of biotinylated-ligand and SureLight™ Allophycocyanin-Streptavidin (APC-SA, PerkinElmer AD0201) in 50 mM HEPES (pH 7.4), 50 mM NaCl, 1 mM TCEP (pH 7), 0.01% (v/v) Tween-20, 0.01% (w/v) bovine serum albumin was added to a white 384-well PerkinElmer Proxiplate Plus plate. DMSO or 3-fold serially diluted compounds were then added to the Proxiplate followed by addition of Flag-BRD9. After a 10-minute incubation at room temperature, Eu—W1024 anti-FLAG (PerkinElmer, AD0273) was added. The final reaction mixture that contained 3.75 nM biotinylated ligand, 3 nM Flag-BRD9, 7.5 nM SureLight™ Allophycocyanin-Streptavidin, and 0.2 nM Eu—W1024 anti-FLAG was incubated at room temperature for 90 minutes.
The plates were then read on a PerkinElmer Envision plate reader to determine the ratio of emission at 665 nm over 615 nm. […]

BRD9 bromodomain, sequence (Q9H8M2 133-239): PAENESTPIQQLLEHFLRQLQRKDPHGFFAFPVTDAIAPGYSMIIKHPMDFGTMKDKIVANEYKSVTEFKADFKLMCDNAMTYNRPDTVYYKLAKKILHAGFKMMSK

Compound | IC50 [nM]
CCCCNC(=O)N1CCc2c(-c3cc(OC)c(CN(C)C)c(OC)c3)cn(C)c(=O)c2C1 [Compound B7, N-butyl-5-(4-((dimethylamino)methyl)-3,5-dimethoxyphenyl)-7-methyl-8-oxo-3,4,7,8-tetrahydro-2,7-naphthyridine-2 (1H)-carboxamide] | < 10
COc1cc(-c2cn(C)c(=O)c3c2CCN(C(=O)NC2CC2)C3)cc(OC)c1CN(C)C [Compound B8, N-cyclopropyl-5-(4-((dimethylamino)methyl)-3,5-dimethoxyphenyl)-7-methyl-8-oxo-3,4,7,8-tetrahydro-2,7-naphthyridine-2 (1H)-carboxamide] | > 10
COc1cc(-c2cn(C)c(=O)c3c2CCN(C(C)=O)C3)cc(OC)c1CN(C)C [Compound B14, 7-acetyl-4-[4-[(dimethylamino)methyl]-3,5-dimethoxyphenyl]-2-methyl-1,2,5,6,7,8-hexahydro-2,7-naphthyridin-1-one] | > 1000
CCNC(=O)N1CCc2c(-c3cc(OC)c(CN(C)C)c(OC)c3)cn(C)c(=O)c2C1 [Compound B5, 5-(4-((dimethylamino)methyl)-3,5-dimethoxyphenyl)-N-ethyl-7-methyl-8-oxo-3,4,7,8-tetrahydro-2,7-naphthyridine-2 (1H)-carboxamide] | < 10
COc1cc(-c2cn(C)c(=O)c3c2CCNC3)cc(OC)c1CN(C)C [Compound B17, 4-[4-[(dimethylamino)methyl]-3,5-dimethoxyphenyl]-2-methyl-1,2,5,6,7,8-hexahydro-2,7-naphthyridin-1-one] | > 1000
COc1cc(-c2cn(C)c(=O)c3c2CCN(C(N)=O)C3)cc(OC)c1CN(C)C [Compound B13, 5-[4-[(dimethylamino)methyl]-3,5-dimethoxyphenyl]-7-methyl-8-oxo-1,2,3,4,7,8-hexahydro-2,7-naphthyridine-2-carboxamide] | > 10
COc1cc(-c2cn(C)c(=O)c3c2CNC(C(N)=O)C3)cc(OC)c1CN(C)C (stereo not shown) [Compound B4, 8-[4-[(dimethylamino)methyl]-3,5-dimethoxyphenyl]-6-methyl-5-oxo-1,2,3,4,5,6-hexahydro-2,6-naphthyridine-3-carboxamide] | > 1000

Continued, values first:

IC50 [nM] | Compound
> 10 | COc1cc(-c2cn(C)c(=O)c3c2CCN(C(=O)NCCCCCC(=O)N[C@H](C(=O)N2C[C@H](O)C[C@H]2C(=O)NCc2ccc(-c4scnc4C)cc2)C(C)(C)C)C3)cc(OC)c1CN(C)C [Compound D36, (2S,4R)-1-[(2S)-2-[6-(5-[4-[(dimethylamino)methyl]-3,5-dimethoxyphenyl]-7-methyl-8-oxo-3,4-dihydro-1H-2,7-naphthyridine-2-carbonylamino)hexanamido]-3,3-dimethylbutanoyl]-4-hydroxy-N-[[4-(4-methyl-1,3-thiazol-5-yl)phenyl]methyl]pyrrolidine-2-carboxamide]
> 100 | COc1cc(-c2cn(C)c(=O)c3c2CN(C(=O)NCCOCCNc2cccc4c2C(=O)N(C2CCC(=O)NC2=O)C4=O)CC3)cc(OC)c1CN(C)C (stereo not shown) [Compound D27, 8-[4-[(dimethylamino)methyl]-3,5-dimethoxyphenyl]-N-[2-(2-[[2-(2,6-dioxopiperidin-3-yl)-1,3-dioxoisoindol-4-yl]amino]ethoxy)ethyl]-6-methyl-5-oxo-3,4-dihydro-1H-2,6-naphthyridine-2-carboxamide formic acid]
< 10 | COc1cc(-c2cn(C)c(=O)c3c2CCN(C(=O)NC2CCN(CCOc4ccc5c(c4)C(=O)N(C4CCC(=O)NC4=O)C5=O)CC2)C3)cc(OC)c1CN(C)C (stereo not shown) [Compound D26, 5-[4-[(dimethylamino)methyl]-3,5-dimethoxyphenyl]-N-[1-(2-[[2-(2,6-dioxopiperidin-3-yl)-1,3-dioxoisoindol-5-yl]oxy]ethyl)piperidin-4-yl]-7-methyl-8-oxo-3,4-dihydro-1H-2,7-naphthyridine-2-carboxamide formic acid]
